Tests used:
SINV (SR19-F-luc cells) = assay: SINV antiviral activity, SR19-F-luc cells, Firefly luciferase; type: cell-based; conditions: Sindbis virus; for inhibition at 25 µM: primary screening, 25 μM final concentration, 24 hours, percent inhibition of viral replication, read-out: SINV Inh; for EC50: secondary screening, SR19-F-luc cells
EBOV minigenome = assay: microbe, parasite or virus in culture; type: cell-based, Ebola virus; conditions: Zaire ebolavirus; for inhibition at 25 µM: 24 h, read-out: EBOV Inh; for EC50: read-out: EBOV EC50
DNG (D2-hRuPac cells) = assay: DNG antiviral activity, D2-hRuPac cells, Renilla luciferase; type: cell-based, Dengue fever virus; conditions: Dengue virus, secondary screening
[1] = system: HCV replicon (Clone A cells, Huh7, subgenomic hepatits C virus RNA); assay: HCV Neo screening assay (HCV replicon, NPTII ELISA); type: cell-based, hepatitis C virus; conditions: for inhibition at 25 µM / EC50: Hepatitis C virus, Huh-7; for inhibition at 25 µM: primary screening, 25 μM final concentration, 24 hours, percent inhibition of viral replication, read-out: HCV Inh; for EC50: Secondary Data, HCV; for HCV TI: therapeutic index CC50/EC50, HCV
RSV minigenome = assay: RSV minigenome-dependent β-galactosidase expression assay (RSV β-Gal); type: cell-based, respiratory syncytial virus; conditions: for EC50 / inhibition at 25 µM: human respiratory syncytial virus; for EC50: Secondary Data, RSV, read-out: RSV EC50; for inhibition at 25 µM: primary screening, 25 μM final concentration, 24 hours, percent inhibition of viral replication, read-out: RSV Inh; for RSV TI: therapeutic index CC50/EC50, RSV
WNV (WN-hRuPac cells) = assay: WNV antiviral activity, WN-hRuPac cells, Renilla luciferase; type: cell-based, West Nile virus; conditions: for EC50 / inhibition at 25 µM: West Nile virus; for EC50: Secondary Data, WNV, read-out: WNV EC50; for inhibition at 25 µM: primary screening, 25 μM final concentration, 24 hours, percent inhibition of viral replication, read-out: WNV Inh; for WNV TI: therapeutic index CC50/EC50, WNV
YFV (YF-hRuPac cells) = assay: microbe, parasite or virus in culture; type: cell-based, yellow fever virus; conditions: for inhibition at 25 µM / EC50: Yellow fever virus; for inhibition at 25 µM: 24 h, read-out: YFV Inh; for EC50: read-out: YFV EC50

SMILES | inhibition at 25 µM (SINV (SR19-F-luc cells)) [%] | EC50 (SINV (SR19-F-luc cells)) [µM] | inhibition at 25 µM (EBOV minigenome) [%] | EC50 (EBOV minigenome) [µM] | CC50 (in vitro; DNG CC50) [µM] | CC50 (in vitro; EBOV CC50) [µM] | CC50 (in vitro; RSV CC50) [µM] | CC50 (in vitro; SINV CC50) [µM] | CC50 (in vitro; WNV CC50) [µM] | CC50 (in vitro; YFV CC50) [µM] | EC50 (DNG (D2-hRuPac cells)) [µM] | inhibition at 25 µM [1] [%] | EC50 (RSV minigenome) [µM] | inhibition at 25 µM (RSV minigenome) [%] | RSV TI (RSV minigenome) | EC50 (WNV (WN-hRuPac cells)) [µM] | inhibition at 25 µM (WNV (WN-hRuPac cells)) [%] | YFV TI (YFV (YF-hRuPac cells)) | inhibition at 25 µM (YFV (YF-hRuPac cells)) [%] | EC50 (YFV (YF-hRuPac cells)) [µM] | further results
CC(=O)c1cccc(Nc2cc(C)nc3ccccc23)c1 [Compound 17] | 72.1 | 3.83 | -42 | 75 | ≥ 75 | ≥ 75 | ≥ 75 | ≥ 75 | ≥ 75 | ≥ 75 | ≥ 75 | 12.3 | 37.3 | 50.7 | 2.01 | ≥ 75 | 40.3 | 1.18 | 54 | 63.6 | CC50 (in vitro; HCV CC50): 30.4 µM
Cc1ccc2nc(C)cc(NCc3ccccc3)c2c1 [Compound 18] | 54.4 | 15.3 | -29.5 | – | 56.4 | 56.4 | 56.4 | 56.4 | 56.4 | 56.4 | 31.5 | 36.9 | 5.57 | 88.6 | 10.12 | 21.3 | 63.9 | 6.21 | 61.5 | 9.07 | WNV TI (WNV (WN-hRuPac cells)): 2.65
COc1ccc(Nc2cc(C)nc3ccccc23)cc1 [Compound 20] | 75.5 | 4.28 | 21 | 50.1 | ≥ 75 | ≥ 75 | ≥ 75 | ≥ 75 | ≥ 75 | ≥ 75 | 42 | 14.8 | 8.52 | 61.4 | 8.8 | ≥ 75 | 38.4 | 2.83 | 51 | 26.5 | CC50 (in vitro; HCV CC50): 64.2 µM
Cc1ccc2nc3c(c(Nc4ccc(N5CCOCC5)cc4)c2c1)CCC3 [Compound 21] | 69.7 | 12.1 | 46.5 | 47.9 | 44.8 | 44.8 | 44.8 | 44.8 | 44.8 | 44.8 | 20.2 | 159 | 4.16 | 99.4 | 10.77 | 9.62 | 62.7 | 7.16 | 63.1 | 6.26 | CC50 (in vitro; HCV CC50): 8.02 µM; EC50 [1]: 8.09 µM; HCV TI [1]: 0.99; WNV TI (WNV (WN-hRuPac cells)): 4.66
COc1cccc2c(Nc3ccc4c(c3)OCCO4)cc(C)nc12 [Compound 22] | -22.7 | 72.3 | 72 | 5.31 | 57.2 | 57.2 | 57.2 | 57.2 | 57.2 | 57.2 | 35.6 | 55.1 | 3 | 75.1 | 19.08 | 22.4 | 48.8 | 0.76 | 29.9 | ≥ 75 | CC50 (in vitro; HCV CC50): 13.7 µM; EC50 [1]: 18.1 µM; HCV TI [1]: 0.75; WNV TI (WNV (WN-hRuPac cells)): 2.56
Cc1ccc2nc(C)cc(NCc3ccco3)c2c1 [Compound 23] | 22.8 | ≥ 75 | -1.14 | 75 | 57.9 | 57.9 | 57.9 | 57.9 | 57.9 | 57.9 | 25.8 | 13.7 | 2.91 | 92 | 19.91 | 3.76 | 70.3 | 8.94 | 86.3 | 6.48 | CC50 (in vitro; HCV CC50): ≥ 75 µM; WNV TI (WNV (WN-hRuPac cells)): 15.41
CCc1ccccc1Nc1cc(C)nc2c(OC)cccc12 [Compound 24] | 64.1 | 16.6 | 35.3 | 55.8 | 57.9 | 57.9 | 57.9 | 57.9 | 57.9 | 57.9 | 27.7 | 43.7 | 4.5 | 94.7 | 12.86 | 25.6 | 73.9 | 0.77 | 67.3 | ≥ 75 | WNV TI (WNV (WN-hRuPac cells)): 2.26
COc1cccc2c(Nc3cccc([N+](=O)[O-])c3)cc(C)nc12 [Compound 25] | 99.8 | 2.13 | 99.4 | 75 | 22.9 | 22.9 | 22.9 | 22.9 | 22.9 | 22.9 | 3.89 | 159 | 4.73 | 99.9 | 4.85 | 3.18 | 100 | 6.25 | 100 | 3.67 | CC50 (in vitro; HCV CC50): 12.7 µM; EC50 [1]: 4.85 µM; HCV TI [1]: 2.62; WNV TI (WNV (WN-hRuPac cells)): 7.22
Cc1ccc2nc3c(c(Nc4cccc(C(F)(F)F)c4)c2c1)CCC3 [Compound 26] | 53.3 | 18.5 | 38.8 | 75 | 53.1 | 53.1 | 53.1 | 53.1 | 53.1 | 53.1 | 48.2 | 148 | 4.1 | 99.9 | 12.95 | 3.71 | 62.2 | 8.88 | 77.2 | 5.98 | CC50 (in vitro; HCV CC50): 8.35 µM; EC50 [1]: 7.57 µM; HCV TI [1]: 1.1; WNV TI (WNV (WN-hRuPac cells)): 14.32

— US20090221624A1, “4-AMINOQUINOLINE COMPOUNDS FOR TREATING VIRUS-RELATED CONDITIONS” (priority 2005, published 2009)
